One assay has as its target T1, human 5HT1E (Homo sapiens, UniProt P28566).
T1 construct: expressed in transfected cells
The assay is described as follows: Radioligand binding, 5HT1E receptor ([3H]-serotonin). As to conditions: for Ki: Table 7, read-out: h5HT1E Ki; for selectivity ratio h5HT1E: Table 8, Ki h5HT1E divided by Ki hGAL3. The procedure: Human 5HT1B, 5HT1D, 5HT1E, 5HT1F, and 5HT7 Receptors: The cell lysates of LM(tk-) clonal cell line stably transfected with the genes encoding each of these 5HT receptor-subtypes were prepared as described above. Cell membranes were suspended in 50mM Tris-HCl buffer (pH 7.4 at 37°C) containing 10 mM MgCl2, 0.2 mM EDTA, 10 µM pargyline, and 0.1% ascorbate. […] Nonspecific binding was determined in the presence of 10 µM serotonin. The bound radioligand was separated by filtration through GF/B filters using a cell harvester.
(§1) Binding data were analyzed using nonlinear regression and statistical techniques available in the GraphPAD Prism package (San Diego, CA). Enzymatic assay data were derived from a standard curve of reference compound data.

A further assay deals with T2, human 5HT4 receptor (Homo sapiens, UniProt Q13639).
T2 construct: expressed in transfected cells
T2 sequence (Q13639 whole entry): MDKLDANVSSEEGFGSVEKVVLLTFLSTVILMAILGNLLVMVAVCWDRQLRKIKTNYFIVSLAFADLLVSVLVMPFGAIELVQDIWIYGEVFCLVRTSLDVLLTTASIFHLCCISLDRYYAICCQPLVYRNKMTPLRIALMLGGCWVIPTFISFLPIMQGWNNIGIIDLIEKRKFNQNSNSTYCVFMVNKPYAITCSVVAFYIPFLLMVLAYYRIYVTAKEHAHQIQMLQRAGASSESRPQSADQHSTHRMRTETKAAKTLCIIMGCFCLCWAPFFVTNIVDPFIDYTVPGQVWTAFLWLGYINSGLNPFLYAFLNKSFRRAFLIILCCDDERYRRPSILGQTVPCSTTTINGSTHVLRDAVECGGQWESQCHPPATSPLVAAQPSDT
The assay is described as follows: Radioligand binding, 5-HT4 receptor. As to conditions: for Ki: Table 7, read-out: h5HT4 Ki; for selectivity ratio h5HT4: Table 8, Ki h5HT4 divided by Ki hGAL3. The procedure: Other 5-HT Receptors: Other serotonin receptor binding assays were performed according to published methods: rat 5HT2C receptor (Julius et al., 1988); and 5-HT6 (Monsma, et al., 1993). The binding assays using the 5-HT4 receptor were performed according to the procedures described in U.S. Patent No. 5,766,879, the disclosure of which is hereby incorporated by reference in its entirety into this application.
as §1

For assay [1], the target named is T3, human α1D adrenergic receptor (Homo sapiens, UniProt P25100).
T3 construct: expressed in transfected cells
T3 sequence (P25100 1-572): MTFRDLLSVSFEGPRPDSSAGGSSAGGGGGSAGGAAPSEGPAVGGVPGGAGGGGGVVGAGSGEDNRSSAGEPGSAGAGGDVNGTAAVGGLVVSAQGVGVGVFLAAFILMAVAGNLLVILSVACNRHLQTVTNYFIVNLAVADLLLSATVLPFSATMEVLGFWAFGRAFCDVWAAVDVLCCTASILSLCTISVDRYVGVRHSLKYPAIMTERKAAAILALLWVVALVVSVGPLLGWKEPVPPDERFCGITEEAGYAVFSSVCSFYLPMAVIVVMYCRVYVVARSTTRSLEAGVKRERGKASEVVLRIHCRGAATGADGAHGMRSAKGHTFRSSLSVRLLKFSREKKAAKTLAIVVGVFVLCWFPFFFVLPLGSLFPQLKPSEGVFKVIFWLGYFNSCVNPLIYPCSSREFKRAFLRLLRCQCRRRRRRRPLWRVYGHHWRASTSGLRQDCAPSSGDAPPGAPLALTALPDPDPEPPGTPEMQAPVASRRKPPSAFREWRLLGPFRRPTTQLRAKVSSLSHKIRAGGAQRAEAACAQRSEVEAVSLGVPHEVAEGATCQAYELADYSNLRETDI
In words: Radioligand binding, α1D adrenergic receptor. As to conditions: for Ki: Table 9, read-out: hα1D Ki; for selectivity ratio hα1D: Table 10, Ki hα1D divided by Ki hGAL3.
From the text: (§2) Other receptors: Cell membranes expressing human dopamine D1, D2, D4 and rat D3 receptors were purchased through BioSignal, Inc. (Montreal, Canada). Binding assays using the histamine H1 receptor; dopamine receptors; and α1A, α1E, and α2 adrenergic receptors may be carried out according to the procedures described in U.S. Patent No. 5,780,485, the disclosure of which is hereby incorporated by reference in its entirety into this application. Binding assays using the dopamine D5 receptor may be carried out according to the procedures described in U.S. Patent No. 5,882,855, the disclosure of which is hereby incorporated by reference in its entirety into this application. Binding assays for the human α1D adrenergic receptor may be carried out according to the procedures described in U.S. Patent No. 6,156,518, the disclosure of which is hereby incorporated by reference in its entirety into this application.
as §1

For another assay, the target named is T4, human α2A adrenoceptor (Homo sapiens, UniProt P08913).
T4 construct: expressed in transfected cells
T4 sequence (P08913 1-465): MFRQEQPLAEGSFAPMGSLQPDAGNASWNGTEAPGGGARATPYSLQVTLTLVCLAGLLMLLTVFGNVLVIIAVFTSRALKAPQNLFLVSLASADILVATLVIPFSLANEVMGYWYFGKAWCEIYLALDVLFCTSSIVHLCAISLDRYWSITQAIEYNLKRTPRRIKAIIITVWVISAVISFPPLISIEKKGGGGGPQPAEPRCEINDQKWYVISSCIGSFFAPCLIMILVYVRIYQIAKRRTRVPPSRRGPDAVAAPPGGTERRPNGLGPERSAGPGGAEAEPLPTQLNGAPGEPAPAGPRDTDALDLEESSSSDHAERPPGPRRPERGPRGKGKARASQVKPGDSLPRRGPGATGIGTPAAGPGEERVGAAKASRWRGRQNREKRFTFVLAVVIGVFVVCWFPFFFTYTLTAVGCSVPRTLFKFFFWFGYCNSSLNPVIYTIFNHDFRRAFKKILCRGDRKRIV
The assay is described as follows: Radioligand binding, α2A adrenergic receptor. As to conditions: for Ki: Table 9, read-out: hα2A Ki; for selectivity ratio hα2A: Table 10, Ki hα2A divided by Ki hGAL3.
From the text: as §2, §1

A further assay has as its target T5, human α1A adrenoceptor (Homo sapiens, UniProt P35348).
T5 construct: expressed in transfected cells
T5 sequence (P35348 1-466): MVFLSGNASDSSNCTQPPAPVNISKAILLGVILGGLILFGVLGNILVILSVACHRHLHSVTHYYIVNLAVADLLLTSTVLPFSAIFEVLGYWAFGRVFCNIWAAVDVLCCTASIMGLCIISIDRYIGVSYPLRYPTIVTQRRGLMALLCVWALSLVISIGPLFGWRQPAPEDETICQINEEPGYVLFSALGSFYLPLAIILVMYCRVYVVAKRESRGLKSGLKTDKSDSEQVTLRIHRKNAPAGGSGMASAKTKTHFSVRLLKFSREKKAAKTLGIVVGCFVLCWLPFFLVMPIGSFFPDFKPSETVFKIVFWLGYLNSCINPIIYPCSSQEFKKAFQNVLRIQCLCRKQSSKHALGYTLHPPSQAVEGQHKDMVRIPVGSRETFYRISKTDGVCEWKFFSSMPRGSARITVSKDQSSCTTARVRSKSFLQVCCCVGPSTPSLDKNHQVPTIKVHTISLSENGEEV
The assay is described as follows: Radioligand binding, α1A adrenergic receptor. As to conditions: for Ki: Table 9, read-out: hα1A Ki; for selectivity ratio hα1A: Table 10, Ki hα1A divided by Ki hGAL3.
From the text: as §2, §1

Where only a bound is given, the exact number is not on record here.

T1 sequence (P28566 whole entry): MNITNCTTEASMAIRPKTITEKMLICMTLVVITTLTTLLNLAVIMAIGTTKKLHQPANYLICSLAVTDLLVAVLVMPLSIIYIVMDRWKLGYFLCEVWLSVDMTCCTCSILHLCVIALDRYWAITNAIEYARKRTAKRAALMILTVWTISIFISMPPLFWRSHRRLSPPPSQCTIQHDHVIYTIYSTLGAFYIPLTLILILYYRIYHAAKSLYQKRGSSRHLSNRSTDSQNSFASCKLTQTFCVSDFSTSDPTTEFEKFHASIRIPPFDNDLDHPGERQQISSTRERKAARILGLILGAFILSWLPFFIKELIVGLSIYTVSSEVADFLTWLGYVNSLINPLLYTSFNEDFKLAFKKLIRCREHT

Turning to `O=C1C(=Nc2ccc(C(F)(F)F)cc2)c2ccccc2N1c1ccccc1` [Example 95, 1-PHENYL-3-[[4-(TRIFLUOROMETHYL)PHENYL]IMINO]-1,3-DIHYDRO-2H-INDOL-2-ONE], at human 5HT1E, the Ki is 27.2 µM and the “selectivity ratio h5HT1E” value is greater than 100. Also, on human 5HT4 receptor, the Ki came out at 3.03 µM and the “selectivity ratio h5HT4” value was greater than 100. In assay [1], the Ki stood at 3.47 µM and the “selectivity ratio hα1D” value is on record as greater than 100. Moreover, on human α2A adrenoceptor, the Ki came to 30.1 µM and the “selectivity ratio hα2A” value is reported as greater than 100. Besides, on human α1A adrenoceptor, the Ki turned out to be 13.1 µM and the “selectivity ratio hα1A” value was greater than 100.
Consider `Cc1ccc(Nc2cc(N(C)C)nc(N(C)CCc3c[nH]c4ccccc34)n2)cc1` [Example 77], for which, at human 5HT1E, the Ki worked out at 5.89 µM and the “selectivity ratio h5HT1E” value is given as greater than 30. Also, at human 5HT4 receptor, the Ki amounted to 1.32 µM and the “selectivity ratio h5HT4” value turned out to be 17. In assay [1], the Ki was 0.217 µM and the “selectivity ratio hα1D” value is recorded as 3. Also, at human α2A adrenoceptor, the inhibition constant (Ki) was found to be 0.315 µM and the “selectivity ratio hα2A” value is on record as 4. At human α1A adrenoceptor, the inhibition constant Ki was found to be 0.834 µM and the “selectivity ratio hα1A” value is on record as 11.
In the case of `Cc1ccc(Nc2cc(N3CCCCC3)nc(N(C)CCc3ccccc3)n2)cc1` [Example 22], on human 5HT1E, the Ki stood at 13.2 µM and the “selectivity ratio h5HT1E” value was greater than 100. In addition, on human 5HT4 receptor, the Ki was determined as 2.46 µM and the “selectivity ratio h5HT4” value is reported as greater than 30. Besides, in assay [1], the Ki was 0.368 µM and the “selectivity ratio hα1D” value turned out to be 13. Besides, at human α2A adrenoceptor, the Ki came out at 0.906 µM and the “selectivity ratio hα2A” value was greater than 30. Further, at human α1A adrenoceptor, the Ki was 1.28 µM and the “selectivity ratio hα1A” value is listed as greater than 30.
Turning to `O=C1C(=Nc2ccc(Cl)cc2)c2ccccc2N1c1ccccc1` [Example 97, 3-[(4-CHLOROPHENYL)IMINO]-1-PHENYL-1,3-DIHYDRO-2H-INDOL-2-ONE], at human 5HT1E, the Ki turned out to be 22.7 µM and the “selectivity ratio h5HT1E” value was greater than 100. For the same compound, at human 5HT4 receptor, the Ki turned out to be 2.55 µM and the “selectivity ratio h5HT4” value was greater than 30. Besides, in assay [1], the Ki is 6.45 µM and the “selectivity ratio hα1D” value was greater than 100. At human α2A adrenoceptor, the Ki came out at 13.6 µM and the “selectivity ratio hα2A” value was greater than 100. In addition, on human α1A adrenoceptor, the Ki turned out to be 16.9 µM and the “selectivity ratio hα1A” value was greater than 100.
As for `COc1cccc(Nc2cc(N3CCCCC3)nc(N(C)CCc3c[nH]c4ccccc34)n2)c1` [Example 17], on human 5HT1E, the Ki came out at 33.5 µM and the “selectivity ratio h5HT1E” value is greater than 100. Besides, at human 5HT4 receptor, the Ki amounted to 2.61 µM and the “selectivity ratio h5HT4” value is given as 30. In addition, in assay [1], the Ki was 0.221 µM and the “selectivity ratio hα1D” value is 3. On human α2A adrenoceptor, the Ki worked out at 3.52 µM and the “selectivity ratio hα2A” value is greater than 30. Moreover, at human α1A adrenoceptor, the Ki was 0.996 µM and the “selectivity ratio hα1A” value is given as 11.

For the origin of these results see patent publication EP2140864A2 (H. Lundbeck A/S, priority 2001, dated 2002).
